{
  "source": "ChEMBL document CHEMBL1201862",
  "about": "“PubChem BioAssay data set” (2004)",
  "key": {"[1]": {"experiment": "cytotoxicity in MIN6 insulinoma cells, dose response, cytotoxicity control, cell-based, mouse insulinoma (AID 2122);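 further: confirmatory high-throughput counterscreen run to flag cytotoxic compounds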", "assay_type": "functional"}, "[2]": {"experiment": "insulin promoter down-regulators in MIN6 cells, imaging, high-content screening, mouse beta cells (AID 1628)", "assay_type": "functional"}, "[3]": {"biological_target": "Heat shock protein HSP 90-alpha (Homo sapiens, UniProt P07900)", "assay_type": "functional, organism-based"}, "[4]": {"biological_target": "ATP-dependent molecular chaperone HSP82 (Candida albicans (strain WO-1) (Yeast), UniProt C4YTQ8)", "sequence (C4YTQ8 whole entry)": "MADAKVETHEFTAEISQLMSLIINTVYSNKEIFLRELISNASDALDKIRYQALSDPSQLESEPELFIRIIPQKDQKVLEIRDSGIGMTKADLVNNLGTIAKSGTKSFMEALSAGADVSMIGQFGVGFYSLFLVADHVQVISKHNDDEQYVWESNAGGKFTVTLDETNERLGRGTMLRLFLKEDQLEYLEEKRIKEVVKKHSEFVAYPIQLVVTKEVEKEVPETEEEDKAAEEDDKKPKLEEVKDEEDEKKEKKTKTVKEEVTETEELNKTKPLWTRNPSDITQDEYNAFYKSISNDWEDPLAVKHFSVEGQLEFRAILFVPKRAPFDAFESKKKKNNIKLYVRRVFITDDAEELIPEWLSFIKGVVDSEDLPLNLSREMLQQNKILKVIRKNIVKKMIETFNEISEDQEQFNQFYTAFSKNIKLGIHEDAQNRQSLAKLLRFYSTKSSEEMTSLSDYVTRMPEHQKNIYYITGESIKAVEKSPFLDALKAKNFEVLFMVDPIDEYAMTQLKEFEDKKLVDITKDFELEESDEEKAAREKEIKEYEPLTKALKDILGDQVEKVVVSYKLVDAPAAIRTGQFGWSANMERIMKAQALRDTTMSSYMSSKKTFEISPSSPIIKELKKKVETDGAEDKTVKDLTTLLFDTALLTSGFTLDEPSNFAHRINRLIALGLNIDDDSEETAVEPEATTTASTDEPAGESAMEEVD", "experiment": "loss of DOC-induced GRE-beta-galactosidase reporter signal, dose response, Hsp90 inhibitor project, S. cerevisiae, luminescence (AID 2400);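 further: beta-galactosidase luminescence from glucocorticoid response element reporter as proxy for Hsp90 function; inhibitor potency where signal loss means Hsp90 inhibition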", "assay_type": "functional, cell-based"}, "[5]": {"experiment": "cytotoxicity toward NIH3T3 fibroblasts, dose response, counter-screen, cell-based, ATP luminescence, mouse fibroblasts (AID 2010);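 further: cells exposed to compound for about 90 hours before reading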", "assay_type": "functional"}, "[6]": {"biological_target": "T1, Serine/threonine-protein phosphatase (Candida dubliniensis (strain CD36 / CBS 7987 / NCPF 3949 / NRRLY-17841) (Yeast), UniProt B9W6M3)", "T1 sequence (B9W6M3 whole entry)": "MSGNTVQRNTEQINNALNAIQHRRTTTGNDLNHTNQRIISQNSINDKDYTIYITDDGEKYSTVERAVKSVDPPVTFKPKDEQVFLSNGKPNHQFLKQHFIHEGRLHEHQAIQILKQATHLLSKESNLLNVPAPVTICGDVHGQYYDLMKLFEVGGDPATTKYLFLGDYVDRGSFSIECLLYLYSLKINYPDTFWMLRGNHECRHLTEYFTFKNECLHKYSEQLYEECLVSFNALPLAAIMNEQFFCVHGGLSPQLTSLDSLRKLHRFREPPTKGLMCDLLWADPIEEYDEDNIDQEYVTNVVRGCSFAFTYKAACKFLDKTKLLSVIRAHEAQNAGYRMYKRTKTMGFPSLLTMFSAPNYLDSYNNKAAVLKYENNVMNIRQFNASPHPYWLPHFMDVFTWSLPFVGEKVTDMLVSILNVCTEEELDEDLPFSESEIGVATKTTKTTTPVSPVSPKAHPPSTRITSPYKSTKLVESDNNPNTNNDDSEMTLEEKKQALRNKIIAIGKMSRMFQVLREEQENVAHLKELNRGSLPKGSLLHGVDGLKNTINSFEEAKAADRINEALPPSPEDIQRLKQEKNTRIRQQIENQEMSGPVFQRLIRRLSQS", "experiment": "calcineurin pathway inhibitors in yeast reporter, dose response, S. cerevisiae, CDRE-lacZ, luminescence, secondary (AID 2388);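 further: yeast reporter cells carrying a calcineurin-responsive lacZ construct stimulated with calcium chloride; luminescent beta-galactosidase reporter signal in whole cells rather than isolated phosphatase activity; potency for inhibition where a drop in reporter signal means calcineurin blockade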", "assay_type": "functional, cell-based"}, "cells [7]": {"experiment": "cells", "assay_type": "functional, cell-based"}, "Exodeoxyribonuclease V": {"biological_target": "Exodeoxyribonuclease V (Escherichia coli (strain K12), UniProt P04993+P07648+P08394)", "sequence (P04993 whole entry)": "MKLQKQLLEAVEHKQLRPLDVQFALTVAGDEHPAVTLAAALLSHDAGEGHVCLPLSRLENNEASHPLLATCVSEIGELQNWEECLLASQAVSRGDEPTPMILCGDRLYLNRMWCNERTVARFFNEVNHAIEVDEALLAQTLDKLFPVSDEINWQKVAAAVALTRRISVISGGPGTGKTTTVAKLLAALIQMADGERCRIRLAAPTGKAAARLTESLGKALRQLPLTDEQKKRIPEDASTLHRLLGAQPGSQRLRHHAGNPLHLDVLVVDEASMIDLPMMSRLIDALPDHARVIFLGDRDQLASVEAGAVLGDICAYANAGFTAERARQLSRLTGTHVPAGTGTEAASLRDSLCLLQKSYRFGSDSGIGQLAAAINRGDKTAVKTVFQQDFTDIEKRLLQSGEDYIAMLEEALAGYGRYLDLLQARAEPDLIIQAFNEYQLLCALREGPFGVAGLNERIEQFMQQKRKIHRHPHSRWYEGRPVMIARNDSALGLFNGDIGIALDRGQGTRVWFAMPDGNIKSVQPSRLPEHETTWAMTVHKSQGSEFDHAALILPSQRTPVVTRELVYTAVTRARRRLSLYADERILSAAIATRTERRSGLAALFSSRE", "sequence (P07648 whole entry)": "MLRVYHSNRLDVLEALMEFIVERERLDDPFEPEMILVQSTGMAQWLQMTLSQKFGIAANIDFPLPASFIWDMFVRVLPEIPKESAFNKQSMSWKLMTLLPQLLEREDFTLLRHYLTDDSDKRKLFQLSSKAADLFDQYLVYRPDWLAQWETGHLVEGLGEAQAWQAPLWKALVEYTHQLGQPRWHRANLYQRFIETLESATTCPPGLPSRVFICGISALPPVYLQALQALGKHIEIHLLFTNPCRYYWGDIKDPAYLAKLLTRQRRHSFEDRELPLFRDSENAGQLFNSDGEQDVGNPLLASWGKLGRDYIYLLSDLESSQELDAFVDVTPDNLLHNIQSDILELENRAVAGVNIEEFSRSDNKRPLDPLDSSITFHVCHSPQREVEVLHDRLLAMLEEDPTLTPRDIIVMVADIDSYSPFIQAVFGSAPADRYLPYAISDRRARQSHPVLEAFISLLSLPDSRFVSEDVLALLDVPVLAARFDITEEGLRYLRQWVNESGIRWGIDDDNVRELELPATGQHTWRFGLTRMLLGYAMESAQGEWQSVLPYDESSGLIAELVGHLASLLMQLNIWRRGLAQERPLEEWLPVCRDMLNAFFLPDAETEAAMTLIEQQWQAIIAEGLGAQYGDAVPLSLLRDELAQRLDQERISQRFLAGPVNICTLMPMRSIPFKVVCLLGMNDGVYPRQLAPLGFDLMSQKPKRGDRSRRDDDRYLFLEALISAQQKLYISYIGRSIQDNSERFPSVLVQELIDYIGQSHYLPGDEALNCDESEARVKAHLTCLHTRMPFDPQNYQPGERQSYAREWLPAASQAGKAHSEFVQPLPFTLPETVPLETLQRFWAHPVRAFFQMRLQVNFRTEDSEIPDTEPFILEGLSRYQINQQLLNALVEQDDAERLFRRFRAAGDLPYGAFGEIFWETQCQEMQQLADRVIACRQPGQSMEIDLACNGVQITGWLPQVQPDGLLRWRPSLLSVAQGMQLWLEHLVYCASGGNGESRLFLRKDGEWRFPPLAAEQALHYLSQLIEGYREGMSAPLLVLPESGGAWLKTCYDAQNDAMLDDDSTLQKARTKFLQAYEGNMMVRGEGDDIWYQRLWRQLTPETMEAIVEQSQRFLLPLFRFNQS", "sequence (P08394 whole entry)": "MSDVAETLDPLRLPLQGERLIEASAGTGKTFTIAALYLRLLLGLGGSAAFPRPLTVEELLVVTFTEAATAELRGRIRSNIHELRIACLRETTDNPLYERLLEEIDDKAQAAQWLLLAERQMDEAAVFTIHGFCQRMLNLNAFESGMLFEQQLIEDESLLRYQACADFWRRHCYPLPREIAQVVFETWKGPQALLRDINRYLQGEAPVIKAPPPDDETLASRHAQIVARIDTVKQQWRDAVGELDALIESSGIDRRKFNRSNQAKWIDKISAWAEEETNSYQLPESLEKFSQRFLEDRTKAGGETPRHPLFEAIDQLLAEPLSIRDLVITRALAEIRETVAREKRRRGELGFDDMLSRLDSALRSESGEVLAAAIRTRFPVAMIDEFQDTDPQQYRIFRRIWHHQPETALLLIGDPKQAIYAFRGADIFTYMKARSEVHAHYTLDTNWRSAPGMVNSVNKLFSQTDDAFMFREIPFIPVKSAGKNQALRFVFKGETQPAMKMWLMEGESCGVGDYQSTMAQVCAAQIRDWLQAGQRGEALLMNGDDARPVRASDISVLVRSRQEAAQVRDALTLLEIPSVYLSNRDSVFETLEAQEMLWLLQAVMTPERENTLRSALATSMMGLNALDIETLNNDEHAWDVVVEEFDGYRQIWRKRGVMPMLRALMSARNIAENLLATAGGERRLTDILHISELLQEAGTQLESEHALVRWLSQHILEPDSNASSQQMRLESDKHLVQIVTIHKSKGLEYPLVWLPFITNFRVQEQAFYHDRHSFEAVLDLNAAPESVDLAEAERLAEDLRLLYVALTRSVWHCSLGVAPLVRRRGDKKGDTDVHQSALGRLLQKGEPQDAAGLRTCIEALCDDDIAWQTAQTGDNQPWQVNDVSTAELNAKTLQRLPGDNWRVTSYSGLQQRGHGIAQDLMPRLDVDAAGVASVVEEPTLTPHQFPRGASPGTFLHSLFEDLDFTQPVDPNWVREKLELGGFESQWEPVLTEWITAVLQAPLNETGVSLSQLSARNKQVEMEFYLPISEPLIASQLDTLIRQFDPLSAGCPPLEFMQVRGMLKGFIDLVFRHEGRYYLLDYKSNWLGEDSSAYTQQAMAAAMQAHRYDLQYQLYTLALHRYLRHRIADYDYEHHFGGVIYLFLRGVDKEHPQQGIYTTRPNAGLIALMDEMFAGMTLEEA", "experiment": "E. coli RecBCD inhibitors, dose response, counter-screen for AddAB inhibitor project, absorbance, V66 E. coli, mutant T4 phage (AID 492957)", "assay_type": "functional, cell-based, Escherichia coli str. K-12 substr. MG1655"}, "[8]": {"experiment": "C. albicans growth with fluconazole, confirmation, fluorescence, retest (AID 2467)", "assay_type": "functional, cell-based"}, "[9]": {"experiment": "Counterscreen for AddAB inhibitors: absorbance-based bacterial cell-based high throughput dose response assay for inhibitors of bacterial viability. [Related pubchem assays (depositor defined):AID435030, AID449728, AID449731, AID488942, AID488955, AID488956]", "assay_type": "functional"}, "INS1": {"test_system": "INS1", "experiment": "beta cell apoptosis inhibitors, cytokine rescue, dose response, luminescence, retest (AID 449756);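 further: cell death triggered by IL-1 beta plus TNF-alpha plus IFN-gamma mixture; protective hits raise ATP signal compared with cytokine alone wells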", "assay_type": "functional, cell-based", "conditions": "Rattus norvegicus"}, "[10]": {"experiment": "NIH-3T3 fibroblast cytotoxicity, dose response, cytotoxicity control, cell-based, fluorescence, Alamar Blue, secondary assay (AID 2327);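 further: NIH-3T3 mouse fibroblasts cultured with fluconazole at 8 µg/mL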", "assay_type": "functional"}, "Vero": {"test_system": "Vero", "experiment": "cells", "assay_type": "functional", "conditions": "Chlorocebus sabaeus"}, "[11]": {"experiment": "inhibitors of intracellular T. cruzi replication, confirmation, NIH3T3 host cells, beta-gal luminescence (AID 2044);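 further: luminescent beta-galactosidase reporter signal from transgenic T. cruzi replicating inside host cells; inhibitors lower the luminescence signal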", "assay_type": "functional, cell-based"}, "cells [12]": {"experiment": "cells", "assay_type": "functional, cell-based", "remark": "listed apart in the source"}, "HEK293 [13]": {"test_system": "HEK293", "experiment": "cells", "assay_type": "functional, cell-based", "conditions": "Homo sapiens"}, "HEK293 [14]": {"test_system": "HEK293", "experiment": "NOD1 signaling inhibitors, primary screen, cell-based, luminescence, uHTS (AID 1578)", "assay_type": "functional", "conditions": "Homo sapiens"}, "HEK293 [15]": {"test_system": "HEK293", "experiment": "cells", "assay_type": "functional, cell-based", "conditions": "Homo sapiens", "remark": "listed apart in the source"}, "HEK293 [16]": {"test_system": "HEK293", "experiment": "NOD2 signaling inhibitors in MDP-stimulated cells, cell-based, uHTS, luminescence (AID 2001)", "assay_type": "functional", "conditions": "Homo sapiens"}},
  "note": "The source made the active and inactive calls.",
  "data": [
    {"smiles": "CC(=O)Nc1ccc(S(=O)(=O)N(C)CCOCc2ccccc2)cc1", "values": [
      {"measurement": "IC50", "setting": "[1]", "result": "1.48 µM (active)"},
      {"measurement": "IC50", "setting": "[2]", "result": "1.82 µM (active)"}
    ]},
    {"smiles": "CCC(=O)NC(c1cccs1)c1cc(Cl)c2cccnc2c1O", "note": "(centres undefined)", "values": [
      {"measurement": "AC50", "setting": "[3]", "result": "3.61 µM (active)"},
      {"measurement": "EC50", "setting": "[4]", "result": "> 150 µM (inactive)"},
      {"measurement": "EC50", "setting": "[5]", "result": "1.13 µM (active)"},
      {"measurement": "EC50", "setting": "[6]", "result": "> 180 µM (inactive)"},
      {"measurement": "EC50", "setting": "cells [7]", "result": "61.3 µM (active)"},
      {"measurement": "IC50", "setting": "Exodeoxyribonuclease V", "result": "> 119 µM (inactive)"},
      {"measurement": "EC50", "setting": "[8]", "result": "0.48 µM (active)"},
      {"measurement": "IC50", "setting": "[9]", "result": "> 119 µM (inactive)"},
      {"measurement": "AC50", "setting": "INS1", "result": "1.28 µM (active)"},
      {"measurement": "EC50", "setting": "[10]", "result": "34.7 µM (active)"},
      {"measurement": "CC50", "setting": "Vero", "result": "3.84 µM (active)"},
      {"measurement": "EC50", "setting": "[11]", "result": "0.692 µM (active)"},
      {"measurement": "EC50", "setting": "cells [12]", "result": "> 350 µM (not active)"}
    ]},
    {"smiles": "CCCCCOc1ccc(/C=C/c2c([N+](=O)[O-])c(=O)n(C)c(=O)n2C)cc1", "values": [
      {"measurement": "IC50", "setting": "HEK293 [13]", "result": "> 20 µM (inactive)"},
      {"measurement": "EC50", "setting": "HEK293 [14]", "result": "> 20 µM (inactive)"},
      {"measurement": "IC50", "setting": "HEK293 [15]", "result": "> 20 µM (inactive)"},
      {"measurement": "IC50", "setting": "HEK293 [16]", "result": "8.94 µM (active)"}
    ]}
  ]
}
